In publication PMC6792352, “Limited Chemical Structural Diversity Found to Modulate Thyroid Hormone Receptor in the Tox21 Chemical Library” (Environmental Health Perspectives, 2019):
Structures can show the parent of a compound that is named as a salt.

test: in vitro; details: rat, gh3-tre-luc cells, AC50 (uM) modified / 1000

Row | Structure (SMILES) | CC50 at 24 h [µM]
1 | CC(=O)O[C@H]1C[C@H](O[C@H]2[C@@H](O)C[C@H](O[C@H]3[C@@H](O)C[C@H](O[C@H]4CC[C@@]5(C)[C@H](CC[C@@H]6[C@@H]5C[C@@H](O)[C@]5(C)[C@@H](C7=CC(=O)OC7)CC[C@]65O)C4)O[C@@H]3C)O[C@@H]2C)O[C@H](C)[C@H]1O[C@@H]1O[C@H](CO)[C@@H](O)[C@H](O)[C@H]1O [Lanatoside C] | > 50
2 | O=C(O)CCCCCCCC(=O)O [Nonanedioic acid] | > 90
3 | CC1(C)[C@H](/C=C(\Cl)C(F)(F)F)[C@@H]1C(=O)O[C@@H](C#N)c1cccc(Oc2ccccc2)c1 [?-Cyhalothrin] | > 80
4 | NC(=O)c1ccccc1 [Benzamide] | > 90
5 | CCCCC(CC)COC(C)=O (centres unmarked) [2-Ethylhexyl acetate] | > 90
6 | OCc1cccc(Oc2ccccc2)c1 [3-Phenoxybenzenemethanol] | > 90
7 | COC(=O)CC#N [Methyl cyanoacetate] | > 100
8 | C=COCCOCCOC=C [{2-[2-(Ethenyloxy)ethoxy]ethoxy}ethene] | > 90
9 | C[N+](C)(C)CCOC(=O)CCC(=O)OCC[N+](C)(C)C [Succinylcholine chloride] | > 50
10 | O=C(O)c1cccc(C(=O)O)n1 [2,6-Pyridinedicarboxylic acid] | > 90
11 | CCCC(C)CO (centres unmarked) [2-Methyl-1-pentanol] | > 90
12 | N=C1NC(=O)N2CC12 (centres unmarked) [Imexon] | > 50
13 | C[C@H]1[C@@H](c2ccccc2)NC(=O)N1C [(4R,5S)-(-)-1,5-Dimethyl-4-phenyl-2-imidazolidinone] | > 90
14 | COC(=O)c1ccccc1OC [Methyl 2-methoxybenzoate] | > 90
15 | CN1C(=O)[C@@H](NC(=O)c2cc3ccccc3[nH]2)N=C(c2ccccc2)c2ccccc21 [Devazepide] | > 50
16 | CC(C)(CO)[C@@H](O)C(=O)NCCC(=O)O [Calcium pantothenate] | > 50
17 | O=S1OCCO1 [Glycol sulfite] | > 100
18 | CCOc1ccc(OCC)c(Cl)c1 [2-Chloro-1,4-diethoxybenzene] | > 90
19 | C=C1CC[C@@]2(O)[C@H]3Cc4ccc(O)c5c4[C@@]2(CCN3CC2CC2)[C@H]1O5 [Nalmefene] | > 50
20 | N[C@@H](Cc1c[nH]c2ccccc12)C(=O)O [l-Tryptophan] | > 90
21 | CC/C(=C(/CC)c1ccc(OP(=O)(O)O)cc1)c1ccc(OP(=O)(O)O)cc1 [Diethylstilbestrol diphosphate] | > 50
22 | CCCCNc1ccccc1 [N-Butylaniline] | > 90
23 | C=C(C)C(=O)OCCOC(=O)C(=C)C [Ethylene glycol dimethacrylate] | > 90

Row | Structure (SMILES) | CC50 at 24 h [µM]
24 | Cc1cc(C)cc(O)c1 [3,5-Dimethylphenol] | > 90
25 | O=C(NC(=O)c1c(F)cccc1F)Nc1cc(Cl)c(Oc2ncc(C(F)(F)F)cc2Cl)c(Cl)c1 [Chlorfluazuron] | 71.4
26 | CS(=O)(=O)CCNCc1ccc(-c2ccc3ncnc(Nc4ccc(OCc5cccc(F)c5)c(Cl)c4)c3c2)o1 [Lapatinib] | > 50
27 | CCC(NC(C)C)C(O)c1ccc(O)c(O)c1 (centres unmarked) [Isoetharine mesylate] | > 50
28 | O=S(=O)(O)c1cc(O)c2ccc(Nc3ccccc3)cc2c1 [4-Hydroxy-7-(phenylamino)naphthalene-2-sulfonic acid] | > 90
29 | O=C(O)c1ccccc1C(c1ccc(O)cc1)c1ccc(O)cc1 [Phenolphthalin] | > 90
30 | O=C(O)CC/C=C\CC[C@@H]1[C@@H](N2CCCCC2)[C@@H](O)C[C@@H]1OCc1ccc(-c2ccccc2)cc1 [Vapiprost hydrochloride] | > 50
31 | CCN(CC)CCNC(=O)c1ccc(NS(C)(=O)=O)cc1 [Sematilide monohydrochloride] | > 50
32 | COc1ccccc1C=CC=O [2-Methoxycinnamaldehyde] | 77.5
33 | COc1cc(Cl)c(OC)cc1N [2,5-Dimethoxy-4-chloroaniline] | > 90
34 | CCN(CC)CCNC(=O)c1c(C)[nH]c(/C=C2\C(=O)Nc3ccc(F)cc32)c1C [Sunitinib malate] | 20.1
35 | O=C1CC[C@@H](C(=O)N[C@H]2C[C@@H]2c2ccccc2)N1 [Rolicyprine] | > 50
36 | C=CCC1=C(C)C(OC(=O)[C@@H]2[C@@H](C=C(C)C)C2(C)C)CC1=O (some centres unmarked) [Allethrin] | 53.2
37 | CN1CCCN=C1COC(=O)C(O)(c1ccccc1)C1CCCCC1 (centres unmarked) [Oxyphencyclimine hydrochloride] | > 50
38 | O=C(C(Cl)(Cl)Cl)C(Cl)(Cl)Cl [Hexachloroacetone] | > 90
39 | CCNc1ccccc1 [N-Ethylaniline] | > 90
40 | CC/C=C\CCOC(=O)c1ccccc1 [(3Z)-Hex-3-en-1-yl benzoate] | > 90
41 | CCOc1ccccc1N [2-Ethoxyaniline] | > 90
42 | Cc1cccc(Cc2c[nH]cn2)c1C [Detomidine hydrochloride] | > 50
43 | Cc1c(F)c(F)c(COC(=O)[C@H]2[C@@H](/C=C(\Cl)C(F)(F)F)C2(C)C)c(F)c1F (racemic) [Tefluthrin] | > 90
44 | CCCCCCCCCCCCCCCCCCOP(=O)([O-])OC1CC[N+](C)(C)CC1 [Perifosine] | > 20
45 | CC(C)C/C=C(/C=O)c1ccccc1 [5-Methyl-2-phenyl-2-hexenal] | 64.6
46 | CC(C)NC[C@@H](O)COc1cccc2ccccc12 [Dexpropranolol] | 27.7

Row | Structure (SMILES) | CC50 at 24 h [µM]
47 | Cc1ccc(Cl)cc1 [4-Chlorotoluene] | > 100
48 | ClCOCCl [bis(Chloromethyl) ether] | > 90
49 | OCCN1CCN(CCCN2c3ccccc3Sc3ccc(C(F)(F)F)cc32)CC1 [Fluphenazine] | 5.76
50 | CCc1cnc(C2=NC(C)(C(C)C)C(=O)N2)c(C(=O)O)c1 (centres unmarked) [Imazethapyr] | > 90
51 | Brc1ccccc1-c1ccccc1 [2-Bromobiphenyl] | > 90
52 | CC1CC(OC(=O)C(O)c2ccccc2)CC(C)(C)C1 (centres unmarked) [Cyclandelate] | > 50
53 | C1CN2CCN1CC2 [1,4-Diazabicyclo[2.2.2]octane] | > 100
54 | Cc1cc(-c2ccc(/N=N/c3c(S(=O)(=O)O)cc4cc(S(=O)(=O)O)cc(N)c4c3O)c(C)c2)ccc1/N=N/c1c(S(=O)(=O)O)cc2cc(S(=O)(=O)O)cc(N)c2c1O [C.I. Direct Blue 14] | 22.8
55 | C1CCCC1 [Cyclopentane] | > 90
56 | COc1ccc(NS(=O)(=O)c2ccc(N)cc2)nn1 [Sulfamethoxypyridazine] | > 20
57 | Cc1c(Nc2ncccc2C(=O)O)cccc1C(F)(F)F [Flunixin meglumine] | 3.99
58 | c1ccc(-c2ccccc2)cc1 [Biphenyl] | > 90
59 | O=C(O)/C=C/c1ccc(/C=C/C(=O)O)cc1 [3,3'-(1,4-Phenylene)bis-2-propenoic acid] | > 50
60 | C[C@]12CC[C@H]3[C@@H](CC[C@@]45O[C@@H]4C(O)=C(C#N)C[C@]35C)[C@@H]1CC[C@@H]2O [Trilostane] | > 90
61 | C=C(C)C1CCC(C)(O)CC1 (stereo not drawn) [beta-Terpineol] | > 90
62 | c1cnc2cc3c(cc2n1)[C@@H]1CNC[C@H]3C1 [Varenicline tartrate] | > 50
63 | COc1ccc(C(=O)/C(Br)=C\C(=O)O)cc1 [Cytembena] | 44
64 | c1ccc(CCc2ccccc2)cc1 [Bibenzyl] | > 90
65 | O=C(O)[C@@H]1CSCN1 [L-Thioproline] | > 50
66 | CCCC1CCCC(=O)O1 (centres unmarked) [delta-Octanolactone] | > 90
67 | Nc1cc(Cl)cc(Cl)c1 [3,5-Dichloroaniline] | > 90
68 | CC(C1CC1)C(O)(Cn1cncn1)c1ccc(Cl)cc1 (centres unmarked) [Cyproconazole] | > 90
69 | CCOC(=O)c1ccc(C2CCC(NC[C@H](O)COc3ccc(O)c(NS(C)(=O)=O)c3)CC2)cc1 (some centres unmarked) [SAR 150640] | 34.8

same assay, conditions: rat, gh3-tre-luc cells, AC50 (uM) modified / 1000, Tox21_110001=Tox21_110991; viability, 1 nM T3 present, 24 h

Row | Structure (SMILES) | CC50 at 24 h [µM]
70 | CCC1(c2ccccc2)C(=O)N(COC)C(=O)N(COC)C1=O [Eterobarb] | > 50

same assay, conditions: rat, gh3-tre-luc cells, AC50 (uM) modified / 1000, Tox21_110001=Tox21_112614; viability, 1 nM T3 present, 24 h

Row | Structure (SMILES) | CC50 at 24 h [µM]
71 | C=CCN1CC[C@]23c4c5ccc(O)c4O[C@H]2[C@@H](O)C=C[C@H]3[C@H]1C5 [Nalorphine hydrochloride] | > 50

same assay, conditions: rat, gh3-tre-luc cells, AC50 (uM) modified / 1000, Tox21_110001=Tox21_112881; viability, 1 nM T3 present, 24 h

Row | Structure (SMILES) | CC50 at 24 h [µM]
72 | NC1(c2ccccc2)CCCCC1 [1-Phenylcyclohexylamine hydrochloride] | 40.7

same assay, conditions: rat, gh3-tre-luc cells, AC50 (uM) modified / 1000, Tox21_110001=Tox21_200868; viability, 1 nM T3 present, 24 h

Row | Structure (SMILES) | CC50 at 24 h [µM]
73 | CC(C)[C@]12CC(=O)[C@H](C)[C@H]1C2 [alpha-Thujone] | > 90

same assay, conditions: rat, gh3-tre-luc cells, AC50 (uM) modified / 1000, Tox21_110001=Tox21_201053; viability, 1 nM T3 present, 24 h

Row | Structure (SMILES) | CC50 at 24 h [µM]
74 | CCOC(=O)CCl [Ethyl chloroacetate] | > 90

same assay, conditions: rat, gh3-tre-luc cells, AC50 (uM) modified / 1000, Tox21_110001=Tox21_201682; viability, 1 nM T3 present, 24 h

Row | Structure (SMILES) | CC50 at 24 h [µM]
75 | NC(=S)Nc1ccccc1 [1-Phenyl-2-thiourea] | > 90

same assay, conditions: rat, gh3-tre-luc cells, AC50 (uM) modified / 1000, Tox21_110001=Tox21_201813; viability, 1 nM T3 present, 24 h

Row | Structure (SMILES) | CC50 at 24 h [µM]
76 | CN(C)c1ccccc1 [N,N-Dimethylaniline] | > 90

same assay, conditions: rat, gh3-tre-luc cells, AC50 (uM) modified / 1000, Tox21_110001=Tox21_202334; viability, 1 nM T3 present, 24 h

Row | Structure (SMILES) | CC50 at 24 h [µM]
77 | CCCCN(CCCC)N=O [N-Nitrosodibutylamine] | > 90

same assay, conditions: rat, gh3-tre-luc cells, AC50 (uM) modified / 1000, Tox21_110001=Tox21_300036; viability, 1 nM T3 present, 24 h

Row | Structure (SMILES) | CC50 at 24 h [µM]
78 | CN(C)c1ccccc1 [N,N-Dimethylaniline] | > 100

same assay, conditions: rat, gh3-tre-luc cells, AC50 (uM) modified / 1000, Tox21_110001=Tox21_301333; viability, 1 nM T3 present, 24 h

Row | Structure (SMILES) | CC50 at 24 h [µM]
79 | CCCN(CCCl)c1c([N+](=O)[O-])cc(C(F)(F)F)cc1[N+](=O)[O-] [Fluchloralin] | > 90

same assay, conditions: rat, gh3-tre-luc cells, AC50 (uM) modified / 1000, Tox21_110001=Tox21_301356; viability, 1 nM T3 present, 24 h

Row | Structure (SMILES) | CC50 at 24 h [µM]
80 | CCSCc1ccccc1OC(=O)NC [Ethiofencarb] | > 90
